In brackets after ≈: the same amount, converted by molar mass.
Tests used:
AR 229 = experiment: Nitric oxide pretreatment with planktonic bacteria; type: cell-based, P. aeruginosa; details: AR 229, antibiotic 0.625 µg/mL, NO-pretreatment 25% MIC 4 h
Protocol: (§1) After exposure, wells were serially diluted in sterile MilliQ water and spiral plated on TSA. Viability was assessed by colony counting.

AR 230 = experiment: Nitric oxide pretreatment with planktonic bacteria; type: cell-based, P. aeruginosa; details: AR 230, antibiotic 2000 µg/mL, NO-pretreatment 25% MIC 4 h
Protocol: as §1

AR 237 = experiment: Nitric oxide pretreatment with planktonic bacteria; type: cell-based, P. aeruginosa; details: AR 237, antibiotic 0.625 µg/mL, NO-pretreatment 25% MIC 4 h
Protocol: as §1

AR 239 = experiment: Nitric oxide pretreatment with planktonic bacteria; type: cell-based, P. aeruginosa; details: AR 239, antibiotic 2000 µg/mL, NO-pretreatment 25% MIC 4 h
Protocol: as §1

ATCC MRSA [1] = experiment: Nitric oxide pretreatment with planktonic bacteria; type: cell-based, Methicillin-resistant S. aureus
Protocol: as §1

AR 542 = experiment: Nitric oxide pretreatment with planktonic bacteria; type: cell-based, Klebsiella pneumoniae
Protocol: as §1

ATCC MRSA [2] = experiment: Serial passaging resistance assay; type: cell-based, Methicillin-resistant S. aureus
Protocol: Bacteria at a final concentration of 10^6 CFU/mL in TSB were incubated with serial dilutions of COS/NO and/or tobramycin for 24 h. Growth was assessed by measuring absorbance at 600 nm. The wells that had the highest concentration of test agent and an OD600 corresponding to more than 10^8 CFU/mL were diluted to 10^6 cfu/mL in TSB and incubated with fresh solutions of COS/NO or tobramycin for 24 h. A single passage was defined as one exposure, incubation, and subsequent dilution. Bacteria were passaged for up to 70 days.

[3] = antibiotic 4000 µg/mL, NO-pretreatment 25% MIC 4 h
[4] = AR 542, antibiotic 500 µg/mL, NO-pretreatment 25% MIC 4 h

For `NC[C@H]1O[C@H](O[C@H]2[C@H](O)[C@@H](O[C@H]3O[C@H](CO)[C@@H](O)[C@H](N)[C@H]3O)[C@H](N)C[C@@H]2N)[C@H](N)C[C@@H]1O` [Tobramycin], the Classification (AR 229) was “Synergistic”, the “Log Difference in bacteria viability with vs without NO-pretreatment” value (from here on “Log Difference … vs without NO-pretreatment”) (AR 229) was 4.08 log and the Classification (AR 230) was “Synergistic”. For the same compound, the “Log Difference … vs without NO-pretreatment” value (AR 230) was 3.54 log, the Classification (AR 237) was “Synergistic” and the “Log Difference … vs without NO-pretreatment” value (AR 237) was 3.70 log. The Classification (AR 239) was “Synergistic”, the “Log Difference … vs without NO-pretreatment” value (AR 239) was 2.27 log and the “tobramycin-susceptibility with the addition of NO” value (ATCC MRSA [1]; NO-pretreatment) was “significant improvement”. The Classification (ATCC MRSA [1]; [3]) was “Synergistic”, the “Log Difference … vs without NO-pretreatment” value (ATCC MRSA [1]; [3]) was 4.09 log and the Classification (AR 542; [4]) was “Synergistic”. The “Log Difference … vs without NO-pretreatment” value (AR 542; [4]) was 2.29 log, the “tobramycin-susceptibility with the addition of NO” value (AR 542; K. pneumoniae AR 542, NO-pretreatment) was “significant improvement” and the MICn (ATCC MRSA [2]; ATCC MRSA, after n = 10 passages) was 16000 µg/mL. The development of tobramycin-resistance (ATCC MRSA [2]; MRSA, concomitant delivery with COS/NO at 25% of its MIC) was “slowing or prevention”, the “change of tobramycin MIC on parallel exposures” value (ATCC MRSA [2]; MRSA, tobramycin alone, serial passages) was “increases” and the MIC (ATCC MRSA [2]; Staphylococcus aureus, MRSA, read-out: MIC0) was 2000 µg/mL (≈ 4.28 mM).
